The results in this text go back to patent US20100152206A1, “Bicyclic Dihydropyrimidines and Uses Thereof” (priority 2005, published 2010).

For assay [1], the target named is T1, Eg5 motor domain construct Eg5-367H (Homo sapiens, UniProt P52732).
T1 construct: the Eg5 motor domain construct Eg5-367H; His tag (read from the 'H' in the construct name; not spelled out for this construct)
T1 sequence (P52732 18-359 limits assumed): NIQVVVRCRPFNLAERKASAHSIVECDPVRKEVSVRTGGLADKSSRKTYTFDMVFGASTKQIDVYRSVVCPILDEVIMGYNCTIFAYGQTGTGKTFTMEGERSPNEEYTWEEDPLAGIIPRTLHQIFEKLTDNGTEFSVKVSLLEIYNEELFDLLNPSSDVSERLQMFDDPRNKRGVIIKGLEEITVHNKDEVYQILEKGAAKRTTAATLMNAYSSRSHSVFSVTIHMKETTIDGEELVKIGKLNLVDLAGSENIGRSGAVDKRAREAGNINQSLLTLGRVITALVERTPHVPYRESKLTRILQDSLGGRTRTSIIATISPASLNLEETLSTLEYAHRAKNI
The assay can be described thus: Activity of Eg5 inhibitors in pure protein assay (microtubule-stimulated ATP hydrolysis, malachite green phosphate detection). The class given is biochemical. The settings on record: microtubule-stimulated ATP hydrolysis by Eg5-367H, 25 degrees, 2 hours. As to the method: We utilized a colorimetric phosphate detection assay (Funk, 2004) to measure microtubule-stimulated ATP hydrolysis by the Eg5 motor domain construct Eg5-367H (Maliga, 2002) as a function of drug concentration. Stocks solutions of each compound were prepared by serial dilution into DMSO and 0.1 microliters was added by pin transfer into KC25 buffer (20 mM PIPES-KOH, pH 6.9, 25 mM KCl, 2 mM MgC12) supplemented with 1 mM ATP-KOH, pH 6.9. KC25 supplemented with 10 micromolar taxol, 50 nanomolar Eg5-367H, and 1 micromolar taxol-polymerized microtubules was then added and the reaction incubated at 25 degrees for 2 hours. Malachite green assay solution (7% (w/v) perchloric acid, 0.0075% (w/v) malachite green oxalate, 0.2% (w/v) sodium molybdate dihydrate) was added to each reaction and the optical absorbance at 640 nm (640) was measured after a 30 minute incubation using a Wallac II automated plate reader. A640 as a function of! drug concentration (C) was fit to the equation A640=A0+B/(1+C/IC50) using Kaleidegraph 3.0, A0 is the basal A640, B is the maximum increase in A640, and IC50 is the drug concentration that inhibits half the Eg5 activity.

The next assay concerns Hela cells. The assay can be described thus: cells. The conditions noted are these: Homo sapiens, 20 h. As to the method:
Hela cells were grown (Maliga, et. al. 2001) to 20% confluence in 384-well, clear-bottomed, black-walled NUNC plates and serial dilutions of prospective Eg5 inhibitors were added by pin transfer, as above [0277], incubated at 37° C. for 20 hours, fixed with TBS-0.1% Triton X100 supplemented with 4% formaldehyde, and stained stained for DNA, phosphorylated Ser10-Histone 3, and alpha-tubulin. Each drug concentration was inspected for the characteristic monoaster phenotype: condensed phospho-S10 positive chromosomes arranged in a rosette pattern around a circularly symmetric array of microtubules, and the absence of bi-polar mitotic spindles.

On to `CCOC(=O)C1=C(CCNC(=O)OC(C)(C)C)NC(=S)NC1c1cccc(O)c1` (stereo not shown) [Entry 3], for which the half-inhibitory concentration (IC50) was greater than 30 µM in assay [1] and greater than 300 µM in the assay with Hela cells.
Take `O=C1OCC2=C1C(c1cccc(O)c1)NC(=S)N2` (stereo not shown) [Entry 8]: the IC50 in assay [1] amounted to 20 µM; in the assay on Hela cells, 300 µM.
For `CCOC(=O)C1=C(CCN)NC(=S)NC1c1cccc(O)c1` (stereo not shown) [Entry 2], in that order: greater than 30 µM and greater than 300 µM.
With `CCOC(=O)C1=C(C)NC(=S)NC1c1cccc(N)c1` (stereo not shown) [Entry 10], the half-maximal inhibitory concentration (IC50) in assay [1] was greater than 30 µM; in the assay with Hela cells it was greater than 300 µM.
As for `CCOC(=O)C1=C(CCO[Si](C(C)C)(C(C)C)C(C)C)NC(=S)NC1c1cccc(O)c1` (stereo not shown) [Entry 4], the results for the IC50 (in assay [1]; in the assay with Hela cells) were greater than 30 µM and greater than 300 µM, respectively.
Consider `CCOC(=O)C1=C(CN)NC(=S)NC1c1cccc(O)c1` (stereo not shown) [Entry 6], for which the IC50 in assay [1] is 12 µM; in the assay on Hela cells, 200 µM.
For `O=C1OCCC2=C1C(c1cccc(O)c1)NC(=S)N2` (stereo not shown) [Entry 5], in that order: 0.5 µM and 30 µM.
Taken in the same sequence, the figures for `O=C1NCCC2=C1C(c1cccc(O)c1)NC(=S)N2` (stereo not shown) [Entry 1] were 1.5 µM and 50 µM.
In the case of `CCOC(=O)C1=C(C)NC(=S)NC1c1cccc(O)c1` (stereo not shown) [Monastrol, reference compound], the figures for the IC50 (in assay [1]; in the assay on Hela cells) were 12 µM and 300 µM, respectively.
Taken in the same sequence, the figures for `CCOC(=O)C1=C(CO)NC(=S)NC1c1cccc(O)c1` (stereo not shown) [Entry 7] were 30 µM and 300 µM.
Taken in the same sequence, the figures for `O=C1NCC2=C1C(c1cccc(O)c1)NC(=S)N2` (stereo not shown) [Entry 9] were 12 µM and greater than 300 µM.

The IC50 is the concentration that gives 50% inhibition. High values mean weaker potency in that assay, low ones greater potency in that assay.
